Results reported in patent US20210322507A1, “GENOTYPE-DIRECTED LOCAL DELIVERY OF TARGETED THERAPEUTICS” (Massachusetts Institute of Technology, priority 2017, published 2021).

Columns and labels:
[1] = given systemically; cited from earlier work
[2] = Systemic toxicity analysis of oral GMX-1778; type: in vivo, SCID mice
Method: Adult SCID female mice of 6-7 weeks were administered GMX-1778 daily for 5 days by oral gavage (250 mg/kg). Body weights were recorded prior to administration and at the end of the study. Blood samples were analyzed for complete blood count by HemaTrue (Heska Lab Systems) and chemistry panel by DriChem (Heska Lab Systems). Liver and heart were fixed in formalin and analyzed for histologic toxicity by hematoxylin and eosin (H&E) staining. Eyes were removed by enucleation and placed in Davidson's fixative for 24 hours prior to formalin and subsequently analyzed for toxicity on H&E slides.

[3] = Pharmacokinetic analysis of GMX-1778 after oral gavage (plasma and brain, UPLC-ESI-MS); type: in vivo, SCID mice; settings: 250 mg/kg oral gavage
Method: GMX-1778 was dissolved in 20% captisol (CyDex) and administered by oral gavage to 6-7 week old female SCID mice at a dose of 250 mg/kg. Vehicle treated animals received similar volume of 5% dextrose prepared in 20% captisol by oral gavage. GMX-1778 treated animals were sacrificed at 30 minutes, 2 hours, 6 hours and 24 hours following treatment. Blood was collected by cardiac puncture and centrifuged at 6000 g for 5 minutes. The brain was homogenized in 3 volumes of PBS with 5% bovine serum albumin (Sigma-Aldrich). GMX-1778 was then extracted into the organic phase by a modified protocol described previously^31. Briefly, 25 μL plasma or 100 μL brain homogenate was added to 10 μL FK-866 (250 ng/mL prepared in methanol). Then, 800 μL ethyl acetate was added and the sample was vortexed and mixed overnight. The sample was then centrifuged at 3000 rpm for 10 minutes and 600 μL supernatant was transferred to a new tube. The sample was dried overnight and reconstituted in 200 μL acetonitrile. Stock solutions of GMX-1778 and an internal standard FK-866 were prepared in acetonitrile at a concentration of 500 μg/mL. A10-point calibration curve ranging from 5 to 5000 ng/mL was prepared. Quality control samples were prepared by a similar procedure using an independent stock solution at three concentrations (25, 250, and 2500 ng/mL). For analysis, 2.5 μL sample was injected on the UPLC-ESI-MS system.
Ultra-performance LC (UPLC) separation was carried out on a Waters UPLC aligned with a Waters Xevo TQ-SMS mass spectrometer (Waters Ltd.). MassLynx 4.1 software was used for data acquisition and analysis. LC separation was performed on an Acquity UPLC High Strength Silica Trifunctional C18 (50 mm×2.1 mm; particle size, 1.8 μm) at 50° C. The mobile phase consisted of acetonitrile, 0.1% formic acid, 10 mM ammonium formate solution flowed at a rate of 0.6 mL/minute using a time and solvent gradient composition. The initial mobile phase composition (100%) was held for 1.0 minutes, and then changed to 20% over the next 0.25 minutes. […]

Row | SMILES | Blood-brain barrier penetration / brain accumulation [1] | Liver histology (H&E) ([2]; 250 mg/kg oral GMX-1778) | Hemoglobin (anemia) ([2]; 250 mg/kg oral daily for 5 days, control 9.2±0.5 g/dL) [g/dL] | Uremia (chemistry panel) ([2]; 250 mg/kg oral daily for 5 days, control 15±0.5 mg/dL) [mg/dL] | Body weight after administration (weight loss) ([2]; 250 mg/kg oral daily for 5 days, control dextrose 21.8±0.6 g) [g] | Detectability of drug in brain within 24 hours ([3]; 24 hours) | Maximum (peak) drug concentration in brain ([3]; SCID mice, at 2 hours) [µM] | Maximum (peak) drug concentration in plasma ([3]; SCID mice, at 2 hours) [µM]
1 | O=C(/C=C/c1cccnc1)NCCCCC1CCN(C(=O)c2ccccc2)CC1 [FK866] | does not measurably accumulate in the brain parenchyma |  |  |  |  |  |  | 
2 | N#CN=C(NCCCCCCOc1ccc(Cl)cc1)Nc1ccncc1 [GMX-1778] | partially blood-brain barrier penetrant | eosinophilic cholangitis | 6.7 ± 0.8 | 20.5 ± 1.9 | 17.9 ± 1.1 | no longer detectable | 3.0 ± 1.5 | 18.0 ± 3.6
